Test results: patent US11918568B2, “Fused ring compound having urea structure” (DAIICHI SANKYO COMPANY, LIMITED, priority 2018, dated 2024)

Molecular target: human NAMPT enzyme (Homo sapiens (Human), UniProt P43490)
Experiment: NAMPT enzyme activating effect (in vitro cell-free enzyme assay)
Type: biochemical
Settings: 2 ng/mL human NAMPT enzyme, 1-h incubation at 25° C., fluorescence of NMN derivative
Experimental: The NAMPT enzyme assay was conducted in accordance with the method of Formentini et al. […] Hereinafter, the procedures will be briefly described. The NAMPT enzyme reaction was carried out using polypropylene 384 well V shaped black plate (Greiner Bio One International GmbH). […] Then, 22 μL of 88% formic acid was added and the mixture was further incubated for 30 min in the dark. The NAMPT enzyme activity was calculated as the difference between fluorescence intensity (Ex 380 nm/Em 450 nm) from the reaction of a test compound treatment group and fluorescence intensity from control reaction free from the NAMPT enzyme. [NAMPT enzyme activity]=[Fluorescence intensity of the test substance treatment group]−[Mean fluorescence intensity of the control reaction free from the NAMPT enzyme] EC50 value of each compound was calculated from the enzyme activities of the compound at various concentrations by using GraphPad Prism software (GraphPad Software) (Table 1)

Sequence of human NAMPT enzyme (P43490 whole entry): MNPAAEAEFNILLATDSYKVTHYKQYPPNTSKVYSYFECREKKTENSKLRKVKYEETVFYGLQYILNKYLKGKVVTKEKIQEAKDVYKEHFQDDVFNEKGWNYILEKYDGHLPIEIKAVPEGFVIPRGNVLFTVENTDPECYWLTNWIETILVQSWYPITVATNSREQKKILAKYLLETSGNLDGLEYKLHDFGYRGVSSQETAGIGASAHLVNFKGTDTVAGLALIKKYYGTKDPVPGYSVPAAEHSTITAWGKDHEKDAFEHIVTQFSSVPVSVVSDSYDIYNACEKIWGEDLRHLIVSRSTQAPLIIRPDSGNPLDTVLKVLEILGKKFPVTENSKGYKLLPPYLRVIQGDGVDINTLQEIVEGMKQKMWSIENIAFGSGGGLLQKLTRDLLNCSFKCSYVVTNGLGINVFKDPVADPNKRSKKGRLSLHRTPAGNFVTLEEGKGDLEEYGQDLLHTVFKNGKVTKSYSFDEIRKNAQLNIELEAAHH

SMILES	EC50
COc1cccc([C@H]2Oc3cc(NC(=O)NCc4ccncc4)ccc3[C@@H]2C)c1 (relative stereo) [Example 53, N-[(2S*,3S*)-2-(3-Methoxyphenyl)-3-methyl-2,3-dihydro-1-benzofuran-6-yl]-N′-[(pyridin-4-yl)methyl]urea]	80 nM
CC1(c2nc3ccc(NC(=O)NCc4ccncc4)cc3o2)CC1 [Example 3, N-[2-(1-Methylcyclopropyl)-1,3-benzoxazol-6-yl]-N′-[(pyridin-4-yl)methyl]urea]	150 nM
Cn1cc(-c2nc3ccc(NC(=O)NCc4ccncc4)cc3o2)cn1 [Example 4, N-[2-(1-Methyl-1H-pyrazol-4-yl)-1,3-benzoxazol-6-yl]-N′-[(pyridin-4-yl)methyl]urea]	980 nM
O=C(NCc1cnco1)Nc1ccc2nc(-c3ccccc3)oc2c1 [Example 5, N-[(1,3-Oxazol-5-yl)methyl]-N′-(2-phenyl-1,3-benzoxazol-6-yl)urea]	110 nM
O=C(NCc1ccncc1)Nc1cc2oc(-c3ccccc3)nc2cc1F [Example 6, N-(5-Fluoro-2-phenyl-1,3-benzoxazol-6-yl)-N′-[(pyridin-4-yl)methyl]urea]	10 nM
O=C(NCc1cnco1)Nc1ccc2nc(-c3ccccc3)nn2c1 [Example 10, N-[(1,3-Oxazol-5-yl)methyl]-N′-(2-phenyl[1,2,4]triazolo[1,5-a]pyridin-6-yl) urea]	140 nM
CCCCc1ccccc1-c1nc2ccc(NC(=O)NCc3ccncc3)cn2n1 [Example 11, N-[2-(2-Butylphenyl)[1,2,4]triazolo[1,5-a]pyridin-6-yl]-N′-[(pyridin-4-yl)methyl]urea]	20 nM
O=C(NCc1ccncc1)Nc1ccc2nc(-c3cccn3-c3ccccc3)nn2c1 [Example 12, N-[2-(1-Phenyl-1H-pyrrol-2-yl)[1,2,4]triazolo[1,5-a]pyridin-6-yl]-N′-[(pyridin-4-yl)methyl]urea]	230 nM
O=C(NCc1ccncc1)Nc1ccc2nc(-c3ccccc3C(F)(F)F)nn2c1 [Example 14, N-[(Pyridin-4-yl)methyl]-N′-{2-[2-(trifluoromethyl)phenyl][1,2,4]triazolo[1,5-a]pyridin-6-yl}urea]	180 nM
O=C(NCc1ccncc1)Nc1ccc2c(C(=O)N3CCCC3)n(-c3ccccc3)nc2c1 [Example 17, N-[2-Phenyl-3-(pyrrolidine-1-carbonyl)-2H-indazol-6-yl]-N′-[(pyridin-4-yl)methyl]urea]	110 nM
CCN(CC)C(=O)c1c2ccc(NC(=O)NCc3ccncc3)cc2nn1-c1ccccc1 [Example 18, N,N-Diethyl-2-phenyl-6-({[(pyridin-4-yl)methyl]carbamoyl}amino)-2H-indazole-3-carboxamide]	50 nM
CCC(=O)N1CC(c2ccccc2)COc2cc(NC(=O)NCc3ccncc3)ccc21 (stereo not shown) [Example 19, N-(3-Phenyl-5-propanoyl-2,3,4,5-tetrahydro-1,5-benzoxazepin-8-yl)-N′-[(pyridin-4-yl)methyl]urea]	380 nM
CN(C)C(=O)c1c(-c2ccccc2)nn2cc(NC(=O)NCc3ccncc3)cc(F)c12 [Example 20, 4-Fluoro-N,N-dimethyl-2-phenyl-6-({[(pyridin-4-yl)methyl]carbamoyl}amino)pyrazolo[1,5-a]pyridine-3-carboxamide]	160 nM
CN(C)C(=O)c1c(-c2ccccc2)nn2cc(NC(=O)NCc3ccncc3)ccc12 [Example 23, N,N-Dimethyl-2-phenyl-6-({[(pyridin-4-yl)methyl]carbamoyl}amino)pyrazolo[1,5-a]pyridine-3-carboxamide]	110 nM
N#Cc1c(-c2ccccc2)nn2cc(NC(=O)NCc3ccncc3)ccc12 [Example 24, N-(3-Cyano-2-phenylpyrazolo[1,5-a]pyridin-6-yl)-N′-[(pyridin-4-yl)methyl]urea]	50 nM
Cc1c(-c2ccccc2)nn2cc(NC(=O)NCc3ccncc3)ccc12 [Example 25, N-(3-Methyl-2-phenylpyrazolo[1,5-a]pyridin-6-yl)-N′-[(pyridin-4-yl)methyl]urea]	70 nM
O=C(NCc1ccncc1)Nc1ccc2cn(-c3ccccc3)nc2c1 [Example 26, N-(2-Phenyl-2H-indazol-6-yl)-N′-[(pyridin-4-yl)methyl]urea]	40 nM
CS(=O)(=O)c1cccc(-n2cc3ccc(NC(=O)NCc4ccncc4)cc3n2)c1 [Example 27, N-{2-[3-(Methanesulfonyl)phenyl]-2H-indazol-6-yl}-N′-[(pyridin-4-yl)methyl]urea]	130 nM
Cc1c2ccc(NC(=O)NCc3ccncc3)cc2nn1-c1ccccc1 [Example 28, N-(3-Methyl-2-phenyl-2H-indazol-6-yl)-N′-[(pyridin-4-yl)methyl]urea]	1000 nM
COCCOc1ccccc1-n1cc2ccc(NC(=O)NCc3ccncc3)cc2n1 [Example 29, N-{2-[2-(2-Methoxyethoxy)phenyl]-2H-indazol-6-yl}-N′-[(pyridin-4-yl)methyl]urea]	60 nM

SMILES	EC50
COc1cccc(-n2cc3ccc(NC(=O)NCc4ccncc4)cc3n2)c1 [Example 30, N-[2-(3-Methoxyphenyl)-2H-indazol-6-yl]-N′-[(pyridin-4-yl)methyl]urea]	10 nM
O=C(NCc1ccncc1)Nc1cnc2cc(-c3ccccc3)nn2c1 [Example 31, N-(2-Phenylpyrazolo[1,5-a]pyrimidin-6-yl)-N′-[(pyridin-4-yl)methyl]urea]	430 nM
COc1cc(-n2nc3cc(NC(=O)NCc4ccncc4)ccc3c2C#N)ccn1 [Example 33, N-[3-Cyano-2-(2-methoxypyridin-4-yl)-2H-indazol-6-yl]-N′-[(pyridin-4-yl)methyl]urea]	130 nM
CC(=O)N1c2ccc(NC(=O)NCc3ccncc3)cc2CC1c1ccccc1 (stereo not shown) [Example 34, N-(1-Acetyl-2-phenyl-2,3-dihydro-1H-indol-5-yl)-N′-[(pyridin-4-yl)methyl]urea]	180 nM
COC(=O)Cn1c(-c2ccccc2)cc2cc(NC(=O)NCc3ccncc3)ccc21 [Example 35, Methyl [2-phenyl-5-({[(pyridin-4-yl)methyl]carbamoyl}amino)-1H-indol-1-yl]acetate]	560 nM
COCCn1c(-c2ccccc2)cc2cc(NC(=O)NCc3ccncc3)ccc21 [Example 36, N-[1-(2-Methoxyethyl)-2-phenyl-1H-indol-5-yl]-N′-[(pyridin-4-yl)methyl]urea]	130 nM
COCCOc1cccc(-c2cc3cc(NC(=O)NCc4ccncc4)ccc3n2C)c1 [Example 37, N-{2-[3-(2-Methoxyethoxy)phenyl]-1-methyl-1H-indol-5-yl}-N′-[(pyridin-4-yl)methyl]urea]	160 nM
Cn1c(-c2cccc(S(C)(=O)=O)c2)cc2cc(NC(=O)NCc3ccncc3)ccc21 [Example 38, N-{2-[3-(Methanesulfonyl)phenyl]-1-methyl-1H-indol-5-yl}-N′-[(pyridin-4-yl)methyl]urea]	620 nM
Cn1c(-c2ccccn2)cc2cc(NC(=O)NCc3ccncc3)ccc21 [Example 39, N-[1-Methyl-2-(pyridin-2-yl)-1H-indol-5-yl]-N′-[(pyridin-4-yl)methyl]urea]	530 nM
O=C(NCc1ccncc1)Nc1ccc2c(c1)cc(-c1ccccc1)n2CC1COCCO1 (stereo not shown) [Example 40, N-{1-[(1,4-Dioxan-2-yl)methyl]-2-phenyl-1H-indol-5-yl}-N′-[(pyridin-4-yl)methyl]urea]	190 nM
CN(C)C(=O)n1c(-c2ccccc2)cc2cc(NC(=O)NCc3ccncc3)ccc21 [Example 41, N,N-Dimethyl-2-phenyl-5-({[(pyridin-4-yl)methyl]carbamoyl}amino)-1H-indole-1-carboxamide]	290 nM
Cn1c(-c2ccccc2)cc2cc(NC(=O)NCc3ccncc3)ccc21 [Example 42, N-(1-Methyl-2-phenyl-1H-indol-5-yl)-N′-[(pyridin-4-yl)methyl]urea]	100 nM
O=C(NCc1cnco1)Nc1ccc2cn(-c3ccccc3)nc2c1 [Example 43, N-[(1,3-Oxazol-5-yl)methyl]-N′-(2-phenyl-2H-indazol-6-yl)urea]	140 nM
O=C(NCc1ccncc1)Nc1ccc2cn(-c3cccc(OC(F)F)c3)nc2c1 [Example 44, N-{2-[3-(Difluoromethoxy)phenyl]-2H-indazol-6-yl}-N′-[(pyridin-4-yl)methyl]urea]	110 nM
COc1cccc(-c2cc3ccc(NC(=O)NCc4ccncc4)cn3n2)c1 [Example 45, N-[2-(3-Methoxyphenyl)pyrazolo[1,5-a]pyridin-6-yl]-N′-[(pyridin-4-yl)methyl]urea]	60 nM
CC(C)Cn1ncc2cc(NC(=O)NCc3ccncc3)ccc21 [Example 46, N-[1-(2-Methylpropyl)-1H-indazol-5-yl]-N′-[(pyridin-4-yl)methyl]urea]	790 nM
COCCN1CC(c2ccccc2)Oc2cc(NC(=O)NCc3ccncc3)ccc21 (stereo not shown) [Example 48, N-[4-(2-Methoxyethyl)-2-phenyl-3,4-dihydro-2H-1,4-benzoxazin-7-yl]-N′-[(pyridin-4-yl)methyl]urea]	650 nM
CCNC(=O)N1CC(c2ccccc2Cl)Oc2cc(NC(=O)NCc3ccncc3)ccc21 (stereo not shown) [Example 49, 2-(2-Chlorophenyl)-N-ethyl-7-({[(pyridin-4-yl)methyl]carbamoyl}amino)-2,3-dihydro-4H-1,4-benzoxazine-4-carboxamide]	130 nM
O=C(NCc1ccncc1)Nc1ccc2c(c1)OC(c1ccccc1)C2 (stereo not shown) [Example 51, N-(2-Phenyl-2,3-dihydro-1-benzofuran-6-yl)-N′-[(pyridin-4-yl)methyl]urea]	120 nM
O=C(NCc1ccncc1)Nc1ccc2c(c1)OCC2c1ccccc1 (stereo not shown) [Example 54, N-(3-Phenyl-2,3-dihydro-1-benzofuran-6-yl)-N′-[(pyridin-4-yl)methyl]urea]	270 nM
